In patent publication US20230407243A1, “GENETIC PLATFORM TO INVESTIGATE THE FUNCTIONS OF BACTERIAL DRUG EFFLUX PUMPS” (priority 2022, published 2023):
Like-named read-outs stand apart in the source and are kept apart here.

Columns and labels:
Assay type in all cases: cell-based, Escherichia coli
[1] = tested on: EKO-35 araC::acrD; assay: MIC susceptibility profiling, efflux platform; conditions: for MIC: Escherichia coli, Table 13A, non-porinated, technical duplicate, read-out: Minimum Inhibitory Concentration, EKO-35 araC::acrD
In short: (§1)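 MHB II broth microdilution; inoculum from 18 h LB culture, PBS-adjusted to OD600 ~1.0, then 1/2000 dilution. Compounds 2-fold titrated, duplicates, DMSO solvent control. 18 h, 37 °C, 900 rpm; background-corrected OD600 end point.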

[2] = tested on: EKO-35 araC::mexCD (MexCD from P. aeruginosa); assay: MIC susceptibility profiling, efflux platform; conditions: for MIC: Table 13B, non-porinated, technical duplicate, read-out: Minimum Inhibitory Concentration, EKO-35 araC::mexCD
In short: as §1

[3] = tested on: EKO-35 araC::acrB; assay: MIC susceptibility profiling, efflux platform; conditions: for MIC: Escherichia coli, Table 13A, non-porinated, technical duplicate, read-out: Minimum Inhibitory Concentration, EKO-35 araC::acrB
In short: as §1

[4] = tested on: EKO-35 araC::emrKY; assay: MIC susceptibility profiling, efflux platform; conditions: for MIC: Escherichia coli, Table 13B, non-porinated, technical duplicate, read-out: Minimum Inhibitory Concentration, EKO-35 araC::emrKY
In short: as §1

[5] = tested on: EKO-35 araC::mdtEF; assay: MIC susceptibility profiling, efflux platform; conditions: for MIC: Escherichia coli, Table 13A, non-porinated, technical duplicate, read-out: Minimum Inhibitory Concentration, EKO-35 araC::mdtEF
In short: as §1

[6] = tested on: EKO-35 araC::acrBD408A; assay: MIC susceptibility profiling, efflux platform; conditions: for MIC: Escherichia coli, Table 13B, non-porinated, technical duplicate, read-out: Minimum Inhibitory Concentration, EKO-35 araC::acrBD408A
In short: as §1

[7] = tested on: EKO-35 araC::mdtBC; assay: MIC susceptibility profiling, efflux platform; conditions: for MIC: Escherichia coli, Table 13B, non-porinated, technical duplicate, read-out: Minimum Inhibitory Concentration, EKO-35 araC::mdtBC
In short: as §1

[8] = tested on: EKO-35; conditions: for interaction of PAβN in combination with the labelled antibiotic (FICI): efflux-deficient strains EKO-35, EKO-35 acrBD408A, ΔtolC
Protocol: (§2) Synergy measurement using checkerboard analysis was performed in 96-well microtiter plates using the microdilution broth method, according to CLSI guidelines (Patel J. B., 2015). The cell inocula were prepared using the colony resuspension method. The minimum inhibitory concentrations (MICs) were defined as the lowest concentration that provided no growth, as determined by measurement of the OD600nm using a Synergy H1 microplate reader (BioTek). Susceptibility testing was performed in MHB II with a final volume of 100 μL. PAI3N (Bachem Americas) was solubilized in MHB II. […] Solvent controls were included in each plate.
(§3) The Fractional Inhibitory Concentration Index (FICI) was used to assess the synergy of PAI3N in combination with different antibiotics. The FICI represents the ΣFIC of each drug. The FICI for each drug was calculated using the following formula: FICI=FICA+FICB=(CA/MICA)+(CB/MICB). Where MICA and MICB are the MICs of drugs A (PAI3N/NMP) and B (antibiotic) alone, and CA and CB are the MICs of the drugs in combination. The effects of PAβN or NMP in combination with antibiotics were classified as: synergistic (FICI<0.5), additive (FICI>0.5-1.0), indifferent (FICI>1.0-2.0), and antagonistic (FICI>2.0). Fold increases in resistance provided by efflux pumps were calculated by dividing the MIC values of strains expressing efflux pumps by the MIC value of EKO-35.

[9] = tested on: EKO-35 acrBD408A
Protocol: as §2, §3

[10] = tested on: ΔtolC
Protocol: as §2, §3

[11] = tested on: wild-type E. coli K-12
Protocol: as §2, §3

[12] = EKO-35, antibiotic alone (PAβN checkerboard)
[13] = EKO-35, antibiotic in combination with PAβN
[14] = strain EKO-35, NMP + antibiotic
[15] = strain EKO-35, antibiotic alone
[16] = strain EKO-35, antibiotic in combination with NMP
[17] = EKO-35 acrBD408A, NMP + antibiotic
[18] = EKO-35 acrBD408A, PAβN + antibiotic
[19] = EKO-35 acrBD408A, antibiotic alone (PAβN checkerboard)
[20] = EKO-35 acrBD408A, antibiotic in combination with PAβN
[21] = strain EKO-35 acrBD408A, NMP + antibiotic
[22] = strain EKO-35 acrBD408A, antibiotic alone
[23] = strain EKO-35 acrBD408A, antibiotic in combination with NMP
[24] = strain ΔtolC, antibiotic in combination with NMP
[25] = ΔtolC, antibiotic alone (PAβN checkerboard)
[26] = ΔtolC, antibiotic in combination with PAβN
[27] = K-12, antibiotic alone (PAβN checkerboard)
[28] = K-12, antibiotic in combination with PAβN

CC(=O)NC[C@H]1CN(c2ccc(N3CCOCC3)c(F)c2)C(=O)O1 [linezolid]
Fold change of MICs ([1]; EKO-35 araC::acrD compared to EKO-35): 1 fold | MIC [1]: 7.81 µg/mL | Fold change of MICs ([2]; EKO-35 araC::mexCD compared to EKO-35): 2 fold | MIC [2]: 15.6 µg/mL | Fold change of MICs ([3]; EKO-35 araC::acrB compared to EKO-35): 32 fold | MIC [3]: 250 µg/mL | Fold change of MICs ([4]; EKO-35 araC::emrKY compared to EKO-35): 1 fold | MIC [4]: 3.91 µg/mL | Fold change of MICs ([5]; EKO-35 araC::mdtEF compared to EKO-35): 1 fold | MIC [5]: 3.91 µg/mL | Fold change of MICs ([6]; EKO-35 araC::acrBD408A compared to EKO-35): 1 fold | MIC [6]: 7.81 µg/mL | Fold change of MICs ([7]; EKO-35 araC::mdtBC compared to EKO-35): 1 fold | MIC [7]: 3.91 µg/mL | Effect ([8]; EKO-35, NMP + antibiotic): Additive | FICI ([8]; EKO-35, NMP + antibiotic): 0.531 | Effect ([8]; EKO-35, PAβN + antibiotic): Additive | FICI ([8]; EKO-35, PAβN + antibiotic): 0.750 | MICb Alone [8, 12]: 16 µg/mL | MICb Combined [8, 13]: 4 µg/mL | interaction of PAβN in combination with the labelled antibiotic (FICI) [8]: not synergistic | Effect [8, 14]: Additive (additive (FICI >0.5-1.0)) | FICI [8, 14]: 0.531 | MICb Alone [8, 15]: 16 µg/mL | MICb Combined [8, 16]: 8 µg/mL | Effect [9, 17]: Additive | FICI [9, 17]: 0.516 | Effect [9, 18]: Additive | FICI [9, 18]: 0.750 | MICb Alone [9, 19]: 16 µg/mL | MICb Combined [9, 20]: 4 µg/mL | Effect [9, 21]: Additive (additive (FICI >0.5-1.0)) | FICI [9, 21]: 0.516 | MICb Alone [9, 22]: 16 µg/mL | MICb Combined [9, 23]: 8 µg/mL | Effect ([10]; strain ΔtolC, NMP + antibiotic): — (indifferent (FICI >1.0)) | FICI ([10]; strain ΔtolC, NMP + antibiotic): 2.000 | MICb Alone ([10]; strain ΔtolC, antibiotic alone): 8 µg/mL | MICb Combined [10, 24]: 8 µg/mL | FICI ([10]; ΔtolC, NMP + antibiotic): 2.000 | Effect ([10]; ΔtolC, PAβN + antibiotic): Additive | FICI ([10]; ΔtolC, PAβN + antibiotic): 0.750 | MICb Alone [10, 25]: 8 µg/mL | MICb Combined [10, 26]: 2 µg/mL | Effect ([11]; K-12, NMP + antibiotic): Synergistic | FICI ([11]; K-12, NMP + antibiotic): 0.375 | Effect ([11]; K-12, PAβN + antibiotic): Synergistic | FICI ([11]; K-12, PAβN + antibiotic): 0.125 | MICb Alone [11, 27]: 256 µg/mL | MICb Combined [11, 28]: 16 µg/mL | Effect ([11]; strain K-12, NMP + antibiotic): Synergistic (Synergy (FICI ≤0.5)) | FICI ([11]; strain K-12, NMP + antibiotic): 0.375 | MICb Alone ([11]; strain K-12, antibiotic alone): 256 µg/mL | MICb Combined ([11]; strain K-12, antibiotic in combination with NMP): 32 µg/mL

Cc1onc(-c2ccccc2)c1C(=O)N[C@@H]1C(=O)N2[C@@H]1SC(C)(C)[C@@H]2C(=O)O [oxacillin]
efflux pump-mediated resistance vs EKO-35 ([1]; AcrD): confirmed | MIC [1]: 160 µg/mL | MIC [2]: 20 µg/mL | MIC [3]: 160 µg/mL | MIC [4]: 0.625 µg/mL | MIC [5]: 20 µg/mL | MIC [6]: 1.25 µg/mL | MIC [7]: 0.625 µg/mL | Effect ([8]; EKO-35, NMP + antibiotic): Additive | FICI ([8]; EKO-35, NMP + antibiotic): 0.510 | Effect ([8]; EKO-35, PAβN + antibiotic): Synergistic | FICI ([8]; EKO-35, PAβN + antibiotic): 0.323 | MICb Alone [8, 12]: 0.5 µg/mL | MICb Combined [8, 13]: 0.13 µg/mL | interaction of PAβN in combination with the labelled antibiotic (FICI) [8]: synergized | Effect [8, 14]: Additive (additive (FICI >0.5-1.0)) | FICI [8, 14]: 0.510 | MICb Alone [8, 15]: 0.5 µg/mL | MICb Combined [8, 16]: 0.13 µg/mL | FICI [9, 17]: 2.000 | Effect [9, 18]: Synergistic | FICI [9, 18]: 0.185 | MICb Alone [9, 19]: 1 µg/mL | MICb Combined [9, 20]: 0.06 µg/mL | Effect [9, 21]: — (indifferent (FICI >1.0)) | FICI [9, 21]: 2.000 | MICb Alone [9, 22]: 0.13 µg/mL | MICb Combined [9, 23]: 0.13 µg/mL | Effect ([10]; strain ΔtolC, NMP + antibiotic): Additive (additive (FICI >0.5-1.0)) | FICI ([10]; strain ΔtolC, NMP + antibiotic): 0.531 | MICb Alone ([10]; strain ΔtolC, antibiotic alone): 1 µg/mL | MICb Combined [10, 24]: 0.5 µg/mL | Effect ([10]; ΔtolC, NMP + antibiotic): Additive | FICI ([10]; ΔtolC, NMP + antibiotic): 0.531 | Effect ([10]; ΔtolC, PAβN + antibiotic): Synergistic | FICI ([10]; ΔtolC, PAβN + antibiotic): 0.313 | MICb Alone [10, 25]: 1 µg/mL | MICb Combined [10, 26]: 0.25 µg/mL | Effect ([11]; K-12, NMP + antibiotic): Synergistic | FICI ([11]; K-12, NMP + antibiotic): 0.375 | Effect ([11]; K-12, PAβN + antibiotic): Synergistic | FICI ([11]; K-12, PAβN + antibiotic): 0.188 | MICb Alone [11, 27]: 512 µg/mL | MICb Combined [11, 28]: 32 µg/mL | Effect ([11]; strain K-12, NMP + antibiotic): Synergistic (Synergy (FICI ≤0.5)) | FICI ([11]; strain K-12, NMP + antibiotic): 0.375 | MICb Alone ([11]; strain K-12, antibiotic alone): 512 µg/mL
